Where two headings read alike, the source gives them in different places.
Assays:
[1] = molecular target: human orexin 2 receptor (Homo sapiens (Human), UniProt O43614); assay: Human orexin 2 receptor radioligand binding; conditions: read-out: hOX2 Ki
Experimental: Human Orexin 2 Receptor Radioligand Binding Studies
(§1) After centrifugation (2K×G, 5 min at 4° C.), the supernatant was aspirated and the pellets frozen and stored at −80° C. […] Each cell pellet from a 15 cm plate was resuspended in 10 mL, stored on ice, and homogenized for 45 sec just prior to addition to the reactions. Competition binding experiments in 96 well polypropylene plates were performed using [^3H]-EMPA (Moraveck Corporation, specific activity=29.6 Ci/mmol), diluted to a 5 nM concentration in PBS (2 nM final concentration). […] The final concentration of DMSO in the reactions is equal to or less than 0.1%. Total and nonspecific binding was determined in the absence and presence of 10 μM almorexant. The total volume of each reaction is 200 μL (20 μL of diluted compounds, 80 μL of [^3H]-EMPA diluted in PBS and 100 μL of the cell suspension). […] The plates were washed 3 times by aspirating 30 ml PBS through the plates. Plates were dried in 55° C. oven for 60 min, scintillation fluid was added, and the radioactivity was counted on a Topcount (Packard).

[2] = molecular target: rat orexin 1 receptor (Rattus norvegicus, UniProt P56718); assay: Rat orexin 1 receptor radioligand binding; conditions: read-out: rOX1 Ki
Experimental: (§2) Rat and Human Orexin 1 Receptor Radioligand Binding Studies
as §1, with “sec” for “sec just”, “reactions.” for “reactions. Competition binding experiments in 96 well polypropylene plates were performed using [^3H]-EMPA (Moraveck Corporation, specific activity=29.6 Ci/mmol), diluted to a 5 nM concentration in PBS (2 nM final concentration).”, “[^3H]-(1-(5-(2-fluoro-phenyl)-2-methyl-thiazol-4-yl)-1-((S)-2-(5-phenyl-(1,3,4)oxadiazol-2-ylmethyl)-pyrrolidin-1-yl)-methanone)” for “[^3H]-EMPA”

[3] = molecular target: human orexin 1 receptor (Homo sapiens, UniProt O43613); assay: Human orexin 1 receptor radioligand binding; conditions: read-out: hOX1 Ki
Experimental: as §2
as §1, with “sec” for “sec just”, “reactions.” for “reactions. Competition binding experiments in 96 well polypropylene plates were performed using [^3H]-EMPA (Moraveck Corporation, specific activity=29.6 Ci/mmol), diluted to a 5 nM concentration in PBS (2 nM final concentration).”, “[^3H]-(1-(5-(2-fluoro-phenyl)-2-methyl-thiazol-4-yl)-1-((S)-2-(5-phenyl-(1,3,4)oxadiazol-2-ylmethyl)-pyrrolidin-1-yl)-methanone)” for “[^3H]-EMPA”

[4] = HEK293 stably expressing human orexin 2 receptor, [3H]-EMPA competitive binding, apparent Ki
[5] = HEK293 cells stably expressing rat orexin 1 receptor, competitive radioligand binding, apparent Ki
[6] = CHO cells stably expressing human orexin 1 receptor, competitive radioligand binding, apparent Ki

human orexin 2 receptor, sequence (O43614 whole entry): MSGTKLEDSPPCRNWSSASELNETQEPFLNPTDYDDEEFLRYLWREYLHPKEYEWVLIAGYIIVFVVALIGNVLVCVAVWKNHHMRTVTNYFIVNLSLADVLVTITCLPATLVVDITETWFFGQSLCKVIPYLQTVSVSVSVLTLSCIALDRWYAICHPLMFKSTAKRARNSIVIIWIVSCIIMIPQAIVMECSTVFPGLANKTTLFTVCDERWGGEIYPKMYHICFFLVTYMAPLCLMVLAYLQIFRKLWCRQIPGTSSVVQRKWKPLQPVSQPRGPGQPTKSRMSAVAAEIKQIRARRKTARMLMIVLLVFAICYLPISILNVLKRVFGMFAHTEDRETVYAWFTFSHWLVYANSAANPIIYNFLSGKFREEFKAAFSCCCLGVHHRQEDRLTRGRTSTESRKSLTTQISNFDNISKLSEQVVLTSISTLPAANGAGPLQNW

SMILES | Ki [1, 4] [nM] | Ki [2, 5] [nM] | Ki [3, 6] [nM] | Ki [1] [nM] | Ki [2] [nM] | Ki [3] [nM]
O=C(c1cc(F)ccc1-c1ncccn1)N1CC2CC(Oc3ccc(C(F)(F)F)cn3)C1C2 (racemic) [Example 19, (R/S)-(5-fluoro-2-(pyrimidin-2-yl)phenyl)(6-((5-(trifluoromethyl)pyridin-2-yl)oxy)-2-azabicyclo[2.2.1]heptan-2-yl)methanone] | 945 | 18 | 9 |  |  | 
Cc1cccc(C(=O)N2C[C@H]3C[C@@H](Nc4ccc(C(F)(F)F)cn4)[C@@H]2C3)c1-n1nccn1 [Example 55, (3-methyl-2-(2H-1,2,3-triazol-2-yl)phenyl)((1S,4S,6R)-6-((5-(trifluoromethyl)pyridin-2-yl)amino)-2-azabicyclo[2.2.1]heptan-2-yl)methanone] | 46 | 3 | 3 |  |  | 
O=C(c1ncccc1-n1nccn1)N1C[C@H]2C[C@@H](Oc3ccc(C(F)(F)F)cn3)[C@@H]1C2 [Example 30, (3-(2H-1,2,3-triazol-2-yl)pyridin-2-yl)((1S,4R,6R)-6-((5-(trifluoromethyl)pyridin-2-yl)oxy)-2-azabicyclo[2.2.1]heptan-2-yl)methanone] | 1700 | 19 | 22 |  |  | 
O=C(c1ccccc1-n1nccn1)N1C[C@H]2C[C@@H](Oc3ccc(C(F)(F)F)cn3)[C@@H]1C2 [Example 36, (2-(2H-1,2,3-triazol-2-yl)phenyl)((1S,4R,6R)-6-((5-(trifluoromethyl)pyridin-2-yl)oxy)-2-azabicyclo[2.2.1]heptan-2-yl)methanone] |  | 5 | 11 |  |  | 
Cc1ccc(-n2nccn2)c(C(=O)N2C[C@H]3C[C@@H](Nc4ccc(C(F)(F)F)cn4)[C@@H]2C3)n1 [Example 54, (6-methyl-3-(2H-1,2,3-triazol-2-yl)pyridin-2-yl)((1S,4S,6R)-6-((5-(trifluoromethyl)pyridin-2-yl)amino)-2-azabicyclo[2.2.1]heptan-2-yl)methanone] |  |  |  | 132 | 5 | 6
CCOc1ccc2cccnc2c1C(=O)N1C[C@H]2C[C@@H](Nc3ccc(C(F)(F)F)cn3)[C@@H]1C2 [Example 56, (7-ethoxyquinolin-8-yl)((1S,4S,6R)-6-((5-(trifluoromethyl)pyridin-2-yl)amino)-2-azabicyclo[2.2.1]heptan-2-yl)methanone] | 192 | 8 | 10 |  |  | 
O=C(c1c(F)cccc1-c1ncccn1)N1C[C@H]2C[C@@H](Oc3ccc(Br)cn3)[C@@H]1C2 [Example 47, ((1S,4R,6R)-6-((5-bromopyridin-2-yl)oxy)-2-azabicyclo[2.2.1]heptan-2-yl)(2-fluoro-6-(pyrimidin-2-yl)phenyl)methanone] |  | 7 | 11 |  |  | 
Cc1ccc(-n2nccn2)c(C(=O)N2C[C@H]3C[C@@H](Oc4ccc(Br)cn4)[C@@H]2C3)n1 [Example 50, ((1S,4R,6R)-6-((5-bromopyridin-2-yl)oxy)-2-azabicyclo[2.2.1]heptan-2-yl)(6-methyl-3-(2H-1,2,3-triazol-2-yl)pyridin-2-yl)methanone] | 670 | 7 | 9 |  |  | 
O=C(c1cccc(F)c1Br)N1C[C@H]2C[C@@H](Oc3ccc(C(F)(F)F)cn3)[C@@H]1C2 [Example 45, (2-bromo-3-fluorophenyl)((1S,4R,6R)-6-((5-(trifluoromethyl)pyridin-2-yl)oxy)-2-azabicyclo[2.2.1]heptan-2-yl)methanone] | 1500 | 60 | 55 |  |  | 
Cc1cccc(C(=O)N2C[C@H]3C[C@@H](Oc4ccc(C(F)(F)F)cn4)[C@@H]2C3)c1-c1ncco1 [Example 32, (3-methyl-2-(oxazol-2-yl)phenyl)((1S,4R,6R)-6-((5-(trifluoromethyl)pyridin-2-yl)oxy)-2-azabicyclo[2.2.1]heptan-2-yl)methanone] |  | 3 | 4 |  |  | 
O=C(c1c(F)cccc1-n1nccn1)N1CC2CC(Oc3ccc(C(F)(F)F)cn3)C1C2 (racemic) [Example 18, (R/S)-(2-fluoro-6-(2H-1,2,3-triazol-2-yl)phenyl)(6-((5-(trifluoromethyl)pyridin-2-yl)oxy)-2-azabicyclo[2.2.1]heptan-2-yl)methanone] |  | 25 | 23 |  |  | 
O=C(c1ccccc1-n1nccn1)N1C[C@H]2C[C@@H](Nc3ccc(C(F)(F)F)cn3)[C@@H]1C2 [Example 53, (2-(2H-1,2,3-triazol-2-yl)phenyl)((1S,4S,6R)-6-((5-(trifluoromethyl)pyridin-2-yl)amino)-2-azabicyclo[2.2.1]heptan-2-yl)methanone] |  | 3 | 3 |  |  | 

Continued, in another order:

Ki [1, 4] [nM] | Ki [2, 5] [nM] | Ki [3, 6] [nM] | SMILES | Ki [1] [nM] | Ki [2] [nM] | Ki [3] [nM]
 | 74 | 120 | O=C(c1ccccc1-n1nccn1)N1CC2CC(Oc3cnc(C(F)(F)F)cn3)C1C2 (racemic) [Example 1, (R/S)-(2-(2H-1,2,3-triazol-2-yl)phenyl)(6-((5-(trifluoromethyl)pyrazin-2-yl)oxy)-2-azabicyclo[2.2.1]heptan-2-yl)methanone] |  |  | 
340 | 16 | 9 | COc1cccc(-c2ncccn2)c1C(=O)N1C[C@H]2C[C@@H](Oc3ccc(C(F)(F)F)cn3)[C@@H]1C2 [Example 40, (2-methoxy-6-(pyrimidin-2-yl)phenyl)((1S,4R,6R)-6-((5-(trifluoromethyl)pyridin-2-yl)oxy)-2-azabicyclo[2.2.1]heptan-2-yl)methanone] |  |  | 
 | 10 | 12 | O=C(c1c(F)cccc1-n1nccn1)N1C[C@H]2C[C@@H](Oc3ccc(C(F)(F)F)cn3)[C@@H]1C2 [Example 46, (2-fluoro-6-(2H-1,2,3-triazol-2-yl)phenyl)((1S,4R,6R)-6-((5-(trifluoromethyl)pyridin-2-yl)oxy)-2-azabicyclo[2.2.1]heptan-2-yl)methanone] |  |  | 
507 | 6 | 6 | O=C(c1ccccc1-n1nccn1)N1C[C@H]2C[C@@H](Oc3ccc(Br)cn3)[C@@H]1C2 [Example 49, (2-(2H-1,2,3-triazol-2-yl)phenyl)((1S,4R,6R)-6-((5-bromopyridin-2-yl)oxy)-2-azabicyclo[2.2.1]heptan-2-yl)methanone] |  |  | 
> 10000 | 52 | 109 | COc1ccc(C(=O)N2CC3CC(Oc4ccc(C(F)(F)F)cn4)C2C3)c(-n2nccn2)c1 (racemic) [Example 13] |  |  | 
 | 21 | 12 | O=C(c1ccccc1-n1nccn1)N1CC2CC(Oc3ccc(C(F)(F)F)cn3)C1C2 (racemic) [Example 7, (R/S)-(2-(2H-1,2,3-triazol-2-yl)phenyl)(6-((5-(trifluoromethyl)pyridin-2-yl)oxy)-2-azabicyclo[2.2.1]heptan-2-yl)methanone] |  |  | 
972 | 3 | 6 | O=C(c1cccc(F)c1-c1ncccn1)N1C[C@H]2C[C@@H](Oc3ccc(Br)cn3)[C@@H]1C2 [Example 48, ((1S,4R,6R)-6-((5-bromopyridin-2-yl)oxy)-2-azabicyclo[2.2.1]heptan-2-yl)(3-fluoro-2-(pyrimidin-2-yl)phenyl)methanone] |  |  | 
4000 | 550 |  | Cc1ccc(-n2nccn2)c(C(=O)N2C[C@H]3C[C@@H](Oc4ncccc4C(F)(F)F)[C@@H]2C3)n1 [Example 52, (6-methyl-3-(2H-1,2,3-triazol-2-yl)pyridin-2-yl)((1S,4R,6R)-6-((3-(trifluoromethyl)pyridin-2-yl)oxy)-2-azabicyclo[2.2.1]heptan-2-yl)methanone] |  |  | 

From US8969352B2, “Substituted 2-azabicycles and their use as orexin receptor modulators” (Janssen Pharmaceutica NV, priority 2013, dated 2015)
